Test results reported in patent publication US20100267561A1, “HERBICIDAL PYRIDAZINONE DERIVATIVES” (priority 2007, published 2010).

Key:
Assay in all cases: Test B pre-/postemergence plant response
Format in all cases: in vivo
[1] = test system: Italian ryegrass (Lolium multiflorum)
Outline: (§1)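 Preemergence and postemergence (plants 2-18 cm, 1- to 4-leaf stage) applications used test chemicals in a non-phytotoxic solvent with surfactant. Plants were held in a greenhouse 13 to 15 days, then rated visually against controls on a 0-100 scale (0 no effect, 100 complete control).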

[2] = test system: blackgrass (Alopecurus myosuroides)
Outline: as §1

[3] = test system: catchweed bedstraw (Galium aparine); details: Preemergence
Outline: as §1

[4] = test system: downy bromegrass (Bromus tectorum)
Outline: as §1

[5] = test system: eastern black (E.B.) nightshade (Solanum ptycanthum); details: Preemergence
Outline: as §1

[6] = test system: giant foxtail (Setaria faberii)
Outline: as §1

[7] = test system: green foxtail (Setaria viridis)
Outline: as §1

[8] = test system: johnsongrass (Sorghum halepense)
Outline: as §1

[9] = test system: morningglory (Ipomoea coccinea)
Outline: as §1

[10] = test system: pigweed (Amaranthus retroflexus)
Outline: as §1

[11] = test system: velvetleaf (Abutilon theophrasti)
Outline: as §1

[12] = test system: wild oat (Avena fatua)
Outline: as §1

[13] = test system: woolly cupgrass (Eriochloa villosa)
Outline: as §1

[14] = test system: yellow nutsedge (Cyperus esculentus)
Outline: as §1

[15] = 8 g ai/ha, postemergence, 0-100 scale
[16] = Postemergence, 16 g ai/ha, scale 0 to 100
[17] = Postemergence, 31 g ai/ha, scale 0 to 100
[18] = Postemergence, 62 g ai/ha, scale 0 to 100, 0 no effect, 100 complete control
[19] = Preemergence, 16 g ai/ha, scale 0 to 100 (0 no effect, 100 complete control)
[20] = Preemergence, 31 g ai/ha, scale 0 to 100 (0 no effect, 100 complete control)
[21] = Preemergence, 62 g ai/ha, scale 0 to 100
[22] = Preemergence, 8 g ai/ha, scale 0 to 100
[23] = Preemergence, 31 g ai/ha, 0 to 100 scale, 0 no effect, 100 complete control
[24] = 16 g ai/ha, scale 0 to 100 (0 no effect, 100 complete control)
[25] = 31 g ai/ha, scale 0 to 100 (0 no effect, 100 complete control)
[26] = Preemergence, 62 g ai/ha, 0 to 100 scale, 0 no effect, 100 complete control
[27] = 16 g ai/ha, postemergence, 0-100 scale
[28] = Preemergence, 8 g ai/ha, scale 0 to 100 (0 no effect, 100 complete control)
[29] = Preemergence, 16 g ai/ha, scale 0 to 100
[30] = 62 g ai/ha, 0 to 100 scale, 0 no effect, 100 complete control

Cn1ncc(O)c(-n2nc(-c3ccc(Cl)cc3)cc2C2CC2)c1=O [Compound 45]
100: Plant response rating, Ryegrass, Italian [1, 17] | Plant response rating, Ryegrass, Italian [1, 18] | Plant response rating, Ryegrass, Italian [1, 20] | Plant response rating, Ryegrass, Italian [1, 21] | Plant response rating, Blackgrass [2, 23] | Plant response rating, Blackgrass [2, 21] | Plant response rating, Foxtail, Giant [6, 17] | Plant response rating, Foxtail, Giant [6, 18] | Plant response rating, Foxtail, Green [7, 17] | Plant response rating, Foxtail, Green [7, 18] | Plant response rating, Foxtail, Green [7, 19] | Plant response rating, Foxtail, Green [7, 23] | Plant response rating, Foxtail, Green [7, 21] | Foxtail, Green plant response rating [7, 22] | Plant response rating, Oat, Wild [12, 17] | Plant response rating, Oat, Wild [12, 18] | Plant response rating, Cupgrass, Woolly [13, 17] | Plant response rating, Cupgrass, Woolly [13, 18]
20: Plant response rating, Blackgrass [2, 16] | Plant response rating, Johnsongrass [8, 19]
80: Plant response rating, Bromegrass, Downy [4, 23] | Plant response rating, Oat, Wild [12, 19]
50: Plant response rating, Bromegrass, Downy [4, 19]
85: Plant response rating, Blackgrass [2, 17] | Cupgrass, Woolly plant response rating [13, 15]
95: Plant response rating, Foxtail, Green [7, 16] | Plant response rating, Oat, Wild [12, 21] | Plant response rating, Cupgrass, Woolly [13, 16]
0: Ryegrass, Italian plant response rating [1, 22] | Blackgrass plant response rating [2, 15] | Plant response rating, Galium [3, 24] | Plant response rating, Galium ([3]; 31 g ai/ha, 0 to 100 scale, 0 no effect, 100 complete control) | Plant response rating, Galium ([3]; 62 g ai/ha, scale 0 to 100) | Galium plant response rating ([3]; 8 g ai/ha, scale 0 to 100) | Bromegrass, Downy plant response rating [4, 22] | Plant response rating, Nightshade, E. B. [5, 24] | Plant response rating, Nightshade, E. B. [5, 25] | Plant response rating, Nightshade, E. B. ([5]; 62 g ai/ha, scale 0 to 100) | Nightshade, E. B. plant response rating ([5]; 8 g ai/ha, scale 0 to 100) | Plant response rating, Foxtail, Giant [6, 19] | Foxtail, Giant plant response rating [6, 22] | Morningglory plant response rating [9, 15] | Plant response rating, Morningglory [9, 16] | Plant response rating, Morningglory [9, 17] | Plant response rating, Morningglory [9, 18] | Plant response rating, Morningglory [9, 19] | Plant response rating, Morningglory [9, 20] | Plant response rating, Morningglory [9, 21] | Morningglory plant response rating [9, 22] | Pigweed plant response rating [10, 15] | Plant response rating, Pigweed [10, 16] | Plant response rating, Pigweed [10, 17] | Plant response rating, Pigweed [10, 18] | Plant response rating, Pigweed [10, 19] | Plant response rating, Pigweed [10, 20] | Plant response rating, Pigweed [10, 21] | Pigweed plant response rating [10, 22] | Velvetleaf plant response rating [11, 15] | Plant response rating, Velvetleaf [11, 16] | Plant response rating, Velvetleaf [11, 17] | Plant response rating, Velvetleaf [11, 18] | Plant response rating, Velvetleaf [11, 19] | Plant response rating, Velvetleaf [11, 20] | Plant response rating, Velvetleaf [11, 26] | Velvetleaf plant response rating [11, 22] | Plant response rating, Cupgrass, Woolly [13, 19] | Plant response rating, Cupgrass, Woolly [13, 21] | Cupgrass, Woolly plant response rating [13, 22] | Nutsedge, Yellow plant response rating [14, 15] | Plant response rating, Nutsedge, Yellow [14, 16] | Plant response rating, Nutsedge, Yellow [14, 17] | Plant response rating, Nutsedge, Yellow [14, 18] | Plant response rating, Nutsedge, Yellow [14, 19] | Plant response rating, Nutsedge, Yellow [14, 20] | Plant response rating, Nutsedge, Yellow [14, 21] | Nutsedge, Yellow plant response rating [14, 22]
15: Johnsongrass plant response rating [8, 22] | Oat, Wild plant response rating [12, 22]
90: Plant response rating, Ryegrass, Italian [1, 16] | Plant response rating, Ryegrass, Italian [1, 19] | Plant response rating, Blackgrass [2, 18] | Plant response rating, Bromegrass, Downy [4, 17] | Plant response rating, Bromegrass, Downy [4, 18] | Plant response rating, Bromegrass, Downy [4, 21] | Foxtail, Giant plant response rating [6, 15] | Oat, Wild plant response rating [12, 15] | Plant response rating, Oat, Wild [12, 20]
45: Plant response rating, Foxtail, Giant [6, 21]
65: Plant response rating, Johnsongrass [8, 16] | Plant response rating, Johnsongrass [8, 17]
35: Plant response rating, Foxtail, Giant [6, 23]
70: Ryegrass, Italian plant response rating [1, 15] | Plant response rating, Johnsongrass [8, 18]
60: Plant response rating, Bromegrass, Downy [4, 16] | Foxtail, Green plant response rating [7, 15] | Johnsongrass plant response rating [8, 15]
98: Plant response rating, Blackgrass [2, 19] | Plant response rating, Foxtail, Giant [6, 16] | Plant response rating, Johnsongrass [8, 21] | Plant response rating, Oat, Wild [12, 16]
75: Plant response rating, Johnsongrass [8, 23]
30: Bromegrass, Downy plant response rating [4, 15]

COc1nn(C)c(=O)c(-n2nc(-c3ccc(Br)cc3)cc2C)c1O [Compound 82]
85: Bromegrass, Downy plant response rating [4, 15] | Foxtail, Green plant response rating [7, 15] | Johnsongrass plant response rating [8, 29] | Cupgrass, Woolly plant response rating [13, 15]
25: Plant response rating, Morningglory [9, 26]
55: Plant response rating, Morningglory [9, 18] | Plant response rating, Velvetleaf [11, 18]
80: Blackgrass plant response rating [2, 28] | Plant response rating, Oat, Wild [12, 20] | Plant response rating, Oat, Wild [12, 26] | Cupgrass, Woolly plant response rating [13, 29]
95: Bromegrass, Downy plant response rating [4, 27] | Foxtail, Giant plant response rating [6, 15] | Oat, Wild plant response rating [12, 15] | Oat, Wild plant response rating [12, 27] | Plant response rating, Oat, Wild [12, 17] | Plant response rating, Cupgrass, Woolly [13, 17]
100: Plant response rating, Ryegrass, Italian [1, 17] | Plant response rating, Ryegrass, Italian [1, 18] | Plant response rating, Ryegrass, Italian [1, 20] | Plant response rating, Ryegrass, Italian [1, 26] | Plant response rating, Blackgrass [2, 17] | Plant response rating, Blackgrass [2, 18] | Plant response rating, Blackgrass [2, 20] | Plant response rating, Blackgrass [2, 26] | Plant response rating, Bromegrass, Downy [4, 17] | Plant response rating, Bromegrass, Downy [4, 18] | Plant response rating, Bromegrass, Downy [4, 26] | Foxtail, Giant plant response rating [6, 27] | Plant response rating, Foxtail, Giant [6, 17] | Plant response rating, Foxtail, Giant [6, 18] | Plant response rating, Foxtail, Giant [6, 20] | Plant response rating, Foxtail, Giant [6, 26] | Foxtail, Giant plant response rating [6, 29] | Foxtail, Green plant response rating [7, 27] | Plant response rating, Foxtail, Green [7, 17] | Plant response rating, Foxtail, Green [7, 18] | Plant response rating, Foxtail, Green [7, 20] | Plant response rating, Foxtail, Green [7, 26] | Foxtail, Green plant response rating [7, 29] | Johnsongrass plant response rating [8, 15] | Johnsongrass plant response rating [8, 27] | Plant response rating, Johnsongrass [8, 17] | Plant response rating, Johnsongrass [8, 18] | Plant response rating, Johnsongrass [8, 26] | Plant response rating, Oat, Wild [12, 18] | Plant response rating, Cupgrass, Woolly [13, 18] | Plant response rating, Cupgrass, Woolly [13, 26]
98: Ryegrass, Italian plant response rating [1, 15] | Ryegrass, Italian plant response rating [1, 27] | Ryegrass, Italian plant response rating [1, 29] | Blackgrass plant response rating [2, 15] | Blackgrass plant response rating [2, 27] | Blackgrass plant response rating [2, 29] | Plant response rating, Bromegrass, Downy [4, 20] | Foxtail, Giant plant response rating [6, 28] | Plant response rating, Johnsongrass [8, 20] | Plant response rating, Cupgrass, Woolly [13, 20]
70: Foxtail, Green plant response rating [7, 28] | Johnsongrass plant response rating [8, 28]
50: Plant response rating, Galium [3, 25] | Plant response rating, Galium [3, 30] | Bromegrass, Downy plant response rating [4, 29]
30: Bromegrass, Downy plant response rating [4, 28]
75: Plant response rating, Velvetleaf [11, 26]
40: Ryegrass, Italian plant response rating [1, 28]
0: Nightshade, E. B. plant response rating ([5]; 8 g ai/ha, scale 0 to 100 (0 no effect, 100 complete control)) | Plant response rating, Nightshade, E. B. [5, 25] | Plant response rating, Nightshade, E. B. [5, 30] | Nightshade, E. B. plant response rating ([5]; 16 g ai/ha, scale 0 to 100) | Morningglory plant response rating [9, 15] | Morningglory plant response rating [9, 27] | Plant response rating, Morningglory [9, 17] | Morningglory plant response rating [9, 28] | Plant response rating, Morningglory [9, 20] | Morningglory plant response rating [9, 29] | Pigweed plant response rating [10, 15] | Pigweed plant response rating [10, 27] | Plant response rating, Pigweed [10, 17] | Plant response rating, Pigweed [10, 18] | Pigweed plant response rating [10, 28] | Plant response rating, Pigweed [10, 20] | Plant response rating, Pigweed [10, 26] | Velvetleaf plant response rating [11, 15] | Velvetleaf plant response rating [11, 27] | Plant response rating, Velvetleaf [11, 17] | Velvetleaf plant response rating [11, 28] | Velvetleaf plant response rating [11, 29] | Oat, Wild plant response rating [12, 28] | Nutsedge, Yellow plant response rating [14, 15] | Nutsedge, Yellow plant response rating [14, 27] | Plant response rating, Nutsedge, Yellow [14, 17] | Plant response rating, Nutsedge, Yellow [14, 18] | Nutsedge, Yellow plant response rating [14, 28] | Plant response rating, Nutsedge, Yellow [14, 20] | Nutsedge, Yellow plant response rating [14, 29]
60: Oat, Wild plant response rating [12, 29]
90: Cupgrass, Woolly plant response rating [13, 27]
45: Plant response rating, Velvetleaf [11, 20] | Cupgrass, Woolly plant response rating [13, 28] | Plant response rating, Nutsedge, Yellow [14, 26]
